Assay results published in PMC8861431, “Tissue Pharmacokinetic Properties and Bystander Potential of Hypoxia-Activated Prodrug CP-506 by Agent-Based Modelling” (Frontiers in Pharmacology, 2022).
pIC50: −log10 of the molar value. “And” between values parts separate entries of the source, which are not always exact repeats. Equal values may be shown once. Read-outs that look alike come from different tables or passages of the source.

Legend:
[1] = system: HCT-116 cells (PORko-G, HCT-116 WT, POR-R); test: Cellular metabolism assay (LC-MS/MS of reduced metabolites); format: in vitro ADME, human; details: for Metabolite concentration, fold higher in POR-R cells than HCT-116 WT cells / Metabolite concentration, fold lower in PORko-G cells than HCT-116 WT cells: after 1 h treatment with 100 µM CP-506, anoxic
Procedure: Aerobic and anoxic conditions were achieved as described above. Cells (5 x 10^5 per well) were seeded with 350 µl medium in duplicate into 24-well plates and left to attach for 2 h in a humidified 37°C incubator. A working solution of CP-506 was prepared in culture medium to achieve a 100 µM concentration in each well after the addition of a 500 µl volume. Plates were exposed to drug for 1 h in a humidified 37°C incubator. Metabolism was then halted by the addition of two-volumes of ice-cold acetonitrile containing 2 µM of internal standard for each analyte. Samples were stored at −80°C until LC-MS/MS analysis.
The LC system for tandem MS consisted of an Agilent 1200 autosampler (4°C) and binary pump, a 3.0 × 50 mm, 1.8-micron Zorbax SB-C18 column (Agilent; PN: 827975-302) and 2.1 × 7 mm guard column (Alltech, IL) maintained at 35°C, at a pressure of <400 bar and flow rate of 0.3 ml/min. The mobile phase comprised a gradient of 0.01% formic acid in 80% acetonitrile - 20% water, v/v (solvent A), and 0.01% formic acid in water (solvent B). Initial mobile phase composition was 20% solvent A and 80% solvent B, increasing to 60% A (0–3 min) then 80% A (3–5.45 min), returning to initial conditions (5.5–6 min). Post-run time was 1 min, and the total run time was […]. Mass spectrometric detection was carried out using an Agilent 6410 triple quadrupole mass spectrometer equipped with a multimode ionization (MMI) source. The mass spectrometer was operated in electrospray positive ionization mode using multiple reaction monitoring (MRM), with Q1 & Q3 set to unit resolution ([…]). The electrospray ionization parameters, optimized for the parent molecular ion ([M+H]+) abundance were: drying gas temperature 325°C, vaporiser temperature 150°C, drying gas flow 5 L/min, nebuliser pressure 50 psi, capillary voltage 1.8 kV, Delta EMV 300 V. Ultra-pure nitrogen was used as collision gas. The divert valve feature of the Agilent 6410 triple quadrupole mass spectrometer was utilised to prevent the eluate from entering the ionisation source chamber during the first 0.5 min of each run. For CP-506 samples, positively charged ions representing the [M+H]+ for CP-506 and CP-506-D8 were collisionally dissociated to form specific product ions which were monitored in MS2 (unit resolution). The MRM transition, ionization mode, collision energy, dwell time, fragmentor voltage and retention time for all compounds is provided in Supplementary Table S2. Agilent MassHunter software (v.4.04.00) was used for data acquisition and chromatographic peak integration.

[2] = system: PORko-G and POR-R spheroids / spheroid co-cultures; test: Spheroid clonogenic survival assay (with spheroid ABM fit); format: cell-based, human; details: for k d S: kill probability rate constant in spheroid cultures: fitted by spheroid ABM to clonogenic survival under anoxia, set to zero for the prodrug, same kd assumed for metabolites
Procedure: (§1) Spheroid cultures were established by seeding 3 x 10^3 cells with 100 µl medium into ultra-low attachment, round bottom 96-well plates (Corning Inc, Corning, NY). Plates were briefly centrifuged (200 g, 5 min) to facilitate cell aggregation and grown in a standard incubator (37°C, 21% O2, 5% CO2) for 4 days before experiments. The culture medium was then aspirated, and the established spheroids taken into a H2/Pd-catalyst anaerobic chamber. Spheroids were washed three times with anoxia pre-equilibrated medium and left to settle for 1 h in a humidified 37°C incubator. Spheroids were removed from the anaerobic chamber after a 4 h drug exposure and washed three times with fresh culture medium. The growth of representative spheroids was monitored for 10 days using a published method of image analysis for volume determination ([Mao et al., 2018]). The remainder were enzymatically dissociated and plated at serial dilutions in 6-well plates containing 2 µM puromycin or 1 mg/ml geneticin for positive selection of POR-R and PORko-G cells, respectively. Colonies were visualized after 10 days of drug-free proliferation by staining with methylene blue (2 g/L in 50% aqueous ethanol) for 30 min. The number of colonies with at least 50 cells was manually counted to determine the plating efficiency. The surviving fraction was determined as the ratio of the plating efficiency of treated cells to that of the controls.
The spheroid ABM is described in further detail elsewhere ([Hong et al., 2018b]; [Mao et al., 2018]). The model employs two 3D grids and two solvers, a coarse grid represents the culture medium and is embedded with a much finer grid that represents the spheroid in a small cubic region at the bottom of the well. The spheroid grows in a specified volume and depth of unstirred medium containing dissolved oxygen. The geometry of the model is lattice-based, in which cells occupy cubic sites on a regular 3D lattice and grow in volume at a rate dependent on the local oxygen concentration. Autonomous cell mobility and cell-cell forces are not simulated. Cell motion occurs only as a result of cell division. Cells divide when the volume reaches a pre-set value (Vdiv) and the resultant daughter cell occupies an adjacent empty lattice site. […] The oxygen concentration at the air-medium boundary is defined by the gas phase of the culture environment. […] When oxygen concentrations fall below a critical level (<0.15 µM), cells are tagged to die and cytolysis occurs after a further 24 h leading to the central necrosis observed in in vitro spheroids. Spheroid ABM simulations were performed on a desktop Windows PC (Intel core I7 processor) from a Qt (Qt Company, https://www.qt.io/) graphical user interface passing parameters to a DLL built with Fortran95. The solution of the coarser grid provides the boundary conditions for the solution of the intracellular and extracellular concentrations within the spheroid lattice. Oxygen and drug are transported by diffusion from the boundary into the spheroid interior through the intercellular space in parallel with their uptake into cells. The model allows specification of two mass transfer constants to characterise the uptake (Kin) and efflux (Kout) rates for each compound. Prodrug metabolism is restricted to the intracellular compartment and dependent on the local oxygen concentration. […]

[3] = system: spheroid co-cultures of POR-R activator and PORko-G target cells; test: Spheroid growth delay assay; format: cell-based; details: Homo sapiens, 4 h, 4 h exposure, anoxic, read-out: IC50 for inhibition of spheroid growth
Procedure: as §1

[4] = system: POR-overexpressing HCT-116 cells (POR-R) monolayer; test: Cellular uptake studies / cellular PK model; format: in vitro ADME, human; details: aerobic 21% O2, Co range 0.3–30 µM
[5] = ref Van Der Wiel et al., 2021; cited from earlier work

Row | Structure (SMILES) | Metabolite concentration, fold higher in POR-R cells than HCT-116 WT cells [1] | Metabolite concentration, fold lower in PORko-G cells than HCT-116 WT cells [1] | Metabolite production suppressed in POR knockout relative to the POR-overexpressing cell line ([1]; anoxic, Figure 3A) | k d S: kill probability rate constant in spheroid cultures [2] | Differential in anoxic sensitivity between PORko-G and POR-R spheroids ([2]; clonogenic endpoint, 4 h exposure, anoxia) | pIC50 ([3]; 0% activator cells) | pIC50 ([3]; 10% activator cells) | pIC50 ([3]; 50% activator cells) | pIC50 ([3]; 100% activator cells) | Steady-state Ci/Ce ratio (cell uptake) [4] | O2 concentration above which prodrug activation and cytotoxicity are completely inhibited [5]
1 | CCN1CCN(C(=O)c2cc(N(CCCl)CCCl)c(S(C)(=O)=O)cc2N)CC1 [CP-506M-Cl2, (2-Amino-5-(bis(2-chloroethyl)amino)-4-(methylsulfonyl)phenyl)(4-ethylpiperazin-1-yl)methanone] | 8.6 fold | 17.7 fold | 151 fold | 0.0256 | – | – | – | – | – | – | –
2 | CCN1CCN(C(=O)c2cc(N(CCBr)CCOS(C)(=O)=O)c(S(C)(=O)=O)cc2N)CC1 [CP-506M, 2-((4-amino-5-(4-ethylpiperazine-1-carbonyl)-2-(methylsulfonyl)phenyl)(2-bromoethyl)amino)ethyl methanesulfonate] | – | 4.1 fold | – | 0.0256 | – | – | – | – | – | – | –
3 | CCN1CCN(C(=O)c2cc(N(CCBr)CCOS(C)(=O)=O)c(S(C)(=O)=O)cc2NO)CC1 [CP-506H, 2-((2-bromoethyl)(5-(4-ethylpiperazine-1-carbonyl)-4-(hydroxyamino)-2-(methylsulfonyl)phenyl)amino)ethyl methanesulfonate] | 5.5 fold | – | – | 0.0256 | – | – | – | – | – | – | –
4 | CCN1CCN(C(=O)c2cc(N(CCBr)CCOS(C)(=O)=O)c(S(C)(=O)=O)cc2[N+](=O)[O-])CC1 [CP-506, 2-[(2-bromoethyl)-5-[(4-ethyl-1-piperazinyl)carbonyl]-2-(methylsulfonyl)-4-nitroanilino]ethyl methanesulfonate] | – | – | – | 0 | 22 fold and 20 fold | < 4.40 | 4.87 | 5.25 | 5.62 | 50 fold | above 1 µM O2
